The source made the active and inactive calls. The rule behind the calls is not given here.

104 compounds from PubChem BioAssay AID1033 (Sanford-Burnham Center for Chemical Genomics, 2008) can be followed below.

For the test, the target named is Chaperone protein DnaK (Escherichia coli (strain K12)) (UniProt P0A6Y8). Briefly: binders of DnaK substrate-binding domain, biophysical, NMR, chaperone (AID 1033). Conditions: Purified DnaK SBD, NMR ligand binding.
Sequence of Chaperone protein DnaK (Escherichia coli (strain K12)) (P0A6Y8 whole entry, looked up, the tested form may be a part): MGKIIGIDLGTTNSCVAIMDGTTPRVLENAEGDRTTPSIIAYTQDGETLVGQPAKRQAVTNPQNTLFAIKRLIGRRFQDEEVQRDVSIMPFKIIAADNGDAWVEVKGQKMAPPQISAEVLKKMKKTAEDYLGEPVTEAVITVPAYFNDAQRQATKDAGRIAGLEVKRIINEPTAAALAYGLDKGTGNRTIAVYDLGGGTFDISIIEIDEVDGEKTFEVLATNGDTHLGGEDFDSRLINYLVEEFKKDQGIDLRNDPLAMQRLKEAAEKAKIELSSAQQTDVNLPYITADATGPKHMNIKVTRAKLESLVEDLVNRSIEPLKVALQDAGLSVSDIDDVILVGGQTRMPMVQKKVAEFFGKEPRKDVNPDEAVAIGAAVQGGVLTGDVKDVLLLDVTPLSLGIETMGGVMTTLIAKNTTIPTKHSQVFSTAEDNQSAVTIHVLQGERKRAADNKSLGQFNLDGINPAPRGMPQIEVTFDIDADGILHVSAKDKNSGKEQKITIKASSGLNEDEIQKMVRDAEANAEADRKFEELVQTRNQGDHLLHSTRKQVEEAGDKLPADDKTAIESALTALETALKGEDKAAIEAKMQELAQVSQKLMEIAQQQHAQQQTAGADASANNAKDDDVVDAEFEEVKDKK
With `CC1(C)CC[C@]2(C)CC[C@]3(C)C(=CCC4[C@@]5(C)CC[C@H](O)C(C)(C)C5CC[C@]43C)C2C1` (some centres undefined), the Kd is > 4 mM (inactive).

Take `Cc1c(C)[n+](=O)c(-c2cccs2)c(C)n1[O-]`: the Kd is > 4 mM (inactive).

Turning to `Cc1ccc(C(=O)Nn2cnnc2)s1`, the Kd is > 4 mM (inactive).

`S=C(NCc1ccco1)NN1CCOCC1`: the Kd is > 4 mM (inactive).

In the case of `Fc1cccc(Cl)c1CN1CCCNCC1`, the Kd is > 4 mM (inactive).

As to `OCc1sccc1-n1cccc1`, the Kd is > 4 mM (inactive).

For the compound `O=S(=O)(NCc1ccco1)N1CCOCC1`, the Kd is > 4 mM (inactive).

As for `Cn1c(=O)c2c(ncn2CCNC2=NCCC2)n(C)c1=O`, the Kd is > 4 mM (inactive).

Take `O=C(O)C1CCN(C(=O)c2cccs2)CC1`: the Kd is > 4 mM (inactive).

Consider `Cc1ccc(C(=O)NC2=NCCS2)o1`, for which the Kd was > 4 mM (inactive).

As to `Nc1cccc(OC(F)(F)F)c1`, the Kd was > 4 mM (inactive).

With `COc1ccccc1/C=C\C(=O)O`, the Kd was > 4 mM (inactive).

As for `C/C1=C/CC(C)(C)/C=C/C/C(C)=C/CC1`, the Kd is > 4 mM (inactive).

Take `O=C(O)CNCC(O)Cn1c2ccccc2c2ccccc21` (centres undefined): the Kd is > 4 mM (inactive).

In the case of `Cc1nc(-c2cccc(-c3noc(C)n3)c2)no1`, the Kd was > 4 mM (inactive).

Take `Nc1nc2ncc(=O)[nH]c2c(=O)[nH]1`: the Kd was > 4 mM (inactive).

Consider `COc1cc2c(cc1OC)[C@@]13CCN4CC5=CCOC6CC(=O)N2C1[C@H]6[C@H]5C[C@H]43` (some centres undefined), for which the Kd is > 4 mM (inactive).

Consider `Cc1occc(=O)c1O`, for which the Kd is > 4 mM (inactive).

Turning to `CCn1ncc(Cl)c1C(=O)Nc1ccncc1`, the Kd is > 4 mM (inactive).

Consider `O=C(O)CCCC(=O)Nc1nccs1`, for which the Kd was > 4 mM (inactive).

As to `COC(=O)c1cccs1`, the Kd was > 4 mM (inactive).

Regarding `CC(C)c1ccccc1NC(=O)c1cnccn1`, the Kd is > 4 mM (inactive).

As to `COCCn1c(SC)nc2c1c(=O)[nH]c(=O)n2C`, the Kd was > 4 mM (inactive).

As for `CN(C)c1ccc2c(=O)[nH][nH]c(=O)c2c1`, the Kd was > 4 mM (inactive).

On to `COC(=O)C[C@H]1C2(C)CC34OC5(C)O[C@@]6([C@H](OC(C)=O)C(OC(C)=O)[C@]7(C)C(/C(=C(/O)C(C)C)C(=O)O[C@H]7c7ccoc7)[C@@]6(O5)[C@H](OC(C)=O)[C@@]3(O)C2OC(=O)C(C)C)[C@]14C` (some centres undefined), for which the Kd is > 4 mM (inactive).

Regarding `COc1ccc2c(=O)c(CC(=O)O)coc2c1`, the Kd is > 4 mM (inactive).

`COc1ccc(NC(=O)/C=N/O)cc1`: the Kd was > 4 mM (inactive).

Turning to `COc1ccc(/C=C2\NC(=S)N(C)C2=O)cc1O`, the Kd was > 4 mM (inactive).

Regarding `COc1ncccc1N`, the Kd is > 4 mM (inactive).

With `Cn1nc(-c2ccccc2)cc1N`, the Kd is > 4 mM (inactive).

For `O=C(Nn1cnnc1)c1ccccc1Cl`, the Kd is > 4 mM (inactive).

As to `Cc1cc(=O)[nH]c(N2CCCCC2)n1`, the Kd was > 4 mM (inactive).

In the case of `O=C(O)CC1C(=O)NCCN1Cc1cccs1` (centres undefined), the Kd is > 4 mM (inactive).

As for `O=C1C=CC(=O)N1c1ccccc1O`, the Kd was > 4 mM (inactive).

Consider `CCC[C@H]1CC2=C(C[C@@H](CC)CC3=C1C(=O)OC3=O)C(=O)OC2=O`, for which the Kd is > 4 mM (inactive).

Consider `Nc1nc(O)c(C2=c3cc(Cl)ccc3=NC2=O)s1`, for which the Kd was > 4 mM (inactive).

On to `O=c1[nH]cc(Nc2ccccc2)c(=O)[nH]1`, for which the Kd was > 4 mM (inactive).

As for `COc1cc(C(=S)N2CCCC2)cc(Cl)c1O`, the Kd is > 4 mM (inactive).

With `O=Cc1c(N2CCOCC2)nc2ccccn2c1=O`, the Kd is > 4 mM (inactive).

With `CNC(=O)C(=O)Nc1ccc(F)cc1`, the Kd is > 4 mM (inactive).

With `CC1NC(C(=O)O)Cc2c1[nH]c1ccccc21` (centres undefined), the Kd is > 4 mM (inactive).

In the case of `O=C(NC(=S)NC1CCS(=O)(=O)C1)c1ccccc1` (centres undefined), the Kd is > 4 mM (inactive).

Regarding `O=C(O)CN1CCN(C2CCCC2)CC1`, the Kd was > 4 mM (inactive).

In the case of `Cc1ccc2c(c1)CC[C@H]1CC(=O)CC[C@]21C`, the Kd was > 4 mM (inactive).

Turning to `Nc1nnc(SCc2ccc(F)cc2)s1`, the Kd is > 4 mM (inactive).

With `CNc1nc(OC)nc(N2CCOCC2)n1`, the Kd was > 4 mM (inactive).

Turning to `CC(=O)O[C@@H]1CC2C(C)(C)[C@H](O)C=C[C@]2(C)C2CC[C@@]3(C)[C@H](c4ccoc4)OC(=O)C4OC43[C@@]21C` (some centres undefined), the Kd was > 4 mM (inactive).

As for `O=C(NCc1ccco1)c1cccc(F)c1`, the Kd is > 4 mM (inactive).

For `OC[C@@H]1CCCN2CCCC[C@H]12`, the Kd was > 4 mM (inactive).

In the case of `CCOc1ccc(C)cc1S(=O)(=O)n1ccc(C)n1`, the Kd is > 4 mM (inactive).

Turning to `NC(=O)CSCc1c(Cl)cccc1Cl`, the Kd is > 4 mM (inactive).

With `CN1CCN(C(=O)/C=C\C(=O)O)CC1`, the Kd is > 4 mM (inactive).

On to `OCc1ccc(CN2CCOCC2)cc1`, for which the Kd is > 4 mM (inactive).

With `COc1cc2c(cc1-c1coc3c4c(c(OC)cc3c1=O)OC(C)(C)C=C4)OCO2`, the Kd is > 4 mM (inactive).

For `Cc1cc(C)n(-c2cccc3cccnc23)n1`, the Kd is > 4 mM (inactive).

Consider `O=C(O)c1ccnc2ccccc12`, for which the Kd was > 4 mM (inactive).

In the case of `CC(C)C(=O)NC(=S)N1CCOCC1`, the Kd was > 4 mM (inactive).

Turning to `CNC(=O)C(=O)Nc1ccc(C)c(C)c1`, the Kd was > 4 mM (inactive).

With `Cn1cnnc1Sc1ncnc(N)c1[N+](=O)[O-]`, the Kd is > 4 mM (inactive).

In the case of `Cn1c(=O)cc(O)c2ccccc21`, the Kd is > 4 mM (inactive).

As to `Cc1nc2ccc(F)cc2cc1C(=O)NCc1ccco1`, the Kd was > 4 mM (inactive).

Consider `c1ccc(C[N+]23CCN(CC2)c2ccccc23)cc1`, for which the Kd was > 4 mM (inactive).

As to `O=C(CSc1ncccn1)Nc1nccs1`, the Kd was > 4 mM (inactive).

As for `CC(=O)c1ccc(Cc2cnc(N)s2)cc1`, the Kd is > 4 mM (inactive).

Take `O=C(c1cc(Cl)cc(Cl)c1)N1CCOCC1`: the Kd is > 4 mM (inactive).

For `Cc1cc(C(=O)NN2CCOCC2)c(C)o1`, the Kd was > 4 mM (inactive).

Take `Cc1n[nH]c(=S)n(/N=C/c2ccccc2)c1=O`: the Kd is > 4 mM (inactive).

Take `CC(=O)Nc1ccn(-c2ccccc2)n1`: the Kd is > 4 mM (inactive).

On to `Cc1cc(N)on1`, for which the Kd is > 4 mM (inactive).

Consider `FC(F)(F)c1nnc2ccc(N3CCOCC3)nn12`, for which the Kd was > 4 mM (inactive).

As for `O=C(O)c1cncc(-c2ccccc2)c1`, the Kd is > 4 mM (inactive).

Regarding `O=S1(=O)CCC(NC(=S)N2CCOCC2)C1` (centres undefined), the Kd was > 4 mM (inactive).

In the case of `O=C1C[C@@H](c2ccccc2)Oc2cc(O)cc(O)c21`, the Kd is > 4 mM (inactive).

As for `Cc1cc(C)n2nc(SCC(=O)c3ccccc3)nc2n1`, the Kd was > 4 mM (inactive).

Regarding `NCc1cccc2nsnc12`, the Kd was > 4 mM (inactive).

`CC(C)C(C)/C=C/C(C)C1CCC2C3=CC=C4CC(O)CCC4(C)C3CCC21C` (centres undefined): the Kd was > 4 mM (inactive).

Turning to `CSc1ncnc2nc[nH]c12`, the Kd was > 4 mM (inactive).

In the case of `CN1CCN(C(=O)Nc2cccc3ccccc23)CC1`, the Kd was > 4 mM (inactive).

Take `O=C1C2CCCCC2C(=O)N1c1nccs1` (centres undefined): the Kd is > 4 mM (inactive).

In the case of `CCc1ccc(/C=N/n2cnnc2)cc1`, the Kd is > 4 mM (inactive).

On to `CC(=O)Nc1ccc(N2C(=O)C=CC2=O)cc1C`, for which the Kd is > 4 mM (inactive).

`CSc1nnc2c(n1)OC(C)=Nc1ccccc1-2`: the Kd was > 4 mM (inactive).

In the case of `CCOC(=O)c1csc(N)n1`, the Kd is > 4 mM (inactive).

For the compound `Nc1ccc2c(c1)OCCO2`, the Kd was > 4 mM (inactive).

For the compound `O=C(CC1Nc2ccccc2NC1=O)Nc1ccc(O)cc1` (centres undefined), the Kd is > 4 mM (inactive).

Turning to `CC(=O)OCC(OC(C)=O)C(OC(C)=O)C(OC(C)=O)C(OC(C)=O)C(COC(C)=O)OC(C)=O` (centres undefined), the Kd was > 4 mM (inactive).

With `CN1CCN(C(=O)c2ccccc2C(=O)O)CC1`, the Kd is > 4 mM (inactive).

`O=S1(=O)C=C(Nc2ccccc2)CC1`: the Kd is > 4 mM (inactive).

Consider `O=S1(=O)C=CC(Nc2ccccc2)C1` (centres undefined), for which the Kd is > 4 mM (inactive).

On to `COC(=O)C1CCc2ccccc2N1` (centres undefined), for which the Kd is > 4 mM (inactive).

`O=C1NC(=S)N/C1=C/c1ccsc1`: the Kd was > 4 mM (inactive).

In the case of `S=c1nc[nH]c2c1cnn2-c1ccccc1`, the Kd was > 4 mM (inactive).

In the case of `O=C(NCc1ccccn1)c1ccccc1Cl`, the Kd is > 4 mM (inactive).

With `OCc1ccc(Oc2ccccc2)nc1`, the Kd was > 4 mM (inactive).

In the case of `C=C1C2CC[C@@]3(C)[C@H](c4ccoc4)OC(=O)C[C@]13O[C@H]1C[C@H](OC(C)=O)C(C)(C)[C@H](CC(=O)OC)[C@@]21C`, the Kd was > 4 mM (inactive).

As for `CC12CCC(O)CC1CCC1C2[C@H](O)CC2(C)C(C3=CC(=O)OC3)CCC12O` (some centres undefined), the Kd was > 4 mM (inactive).

As to `COc1ccc(-c2nnsc2N)cc1`, the Kd is > 4 mM (inactive).

In the case of `COc1ccc(N2C(=O)CCC2=O)c(OC)c1`, the Kd is > 4 mM (inactive).

Turning to `Cc1cc(C(=O)N2CCN(c3ncccn3)CC2)c(C)o1`, the Kd was > 4 mM (inactive).

`O=C(O)C1CN2CCC1CC2` (centres undefined): the Kd was > 4 mM (inactive).

`COc1ccc(Cl)cc1NC(=O)c1ccco1`: the Kd was > 4 mM (inactive).

As to `CC(=O)Nc1c(Cl)cnn(-c2ccccc2)c1=O`, the Kd is > 4 mM (inactive).

For the compound `Cn1c(SCC(N)=O)nnc1-c1cccnc1`, the Kd was > 4 mM (inactive).

`C[C@@H]1C(=O)O[C@H]2[C@H]1CC[C@@]1(C)C=CC(=O)[C@@]3(C)O[C@@]213`: the Kd is > 4 mM (inactive).
